Non-standard residues stand in square brackets, D forms with d. Residues, ends and D or L forms follow the SMILES beside them. *: point of attachment. NMeI = CC[C@H](C)[C@H](NC)C(=O)O; NMeD = CN[C@@H](CC(=O)O)C(=O)O; NMeV = CN[C@H](C(=O)O)C(C)C; Pip = O=C(O)[C@@H]1CCCCN1; dLac = C[C@@H](O)C(=O)O; OtBu = CC(C)(C)O*
Columns and labels:
Assay type in all cases: functional, cell-based
[1] = molecular target: T1, ATP-dependent translocase ABCB1 (P-glycoprotein) (Homo sapiens, UniProt P08183); assay: TP_TRANSPORTER: increase in Calcein-AM intracellular accumulation (Calcein-AM: 0.25 uM) in MDR-P388 cells; details: mouse, probe Calcein-AM
T1 sequence (P08183 whole entry): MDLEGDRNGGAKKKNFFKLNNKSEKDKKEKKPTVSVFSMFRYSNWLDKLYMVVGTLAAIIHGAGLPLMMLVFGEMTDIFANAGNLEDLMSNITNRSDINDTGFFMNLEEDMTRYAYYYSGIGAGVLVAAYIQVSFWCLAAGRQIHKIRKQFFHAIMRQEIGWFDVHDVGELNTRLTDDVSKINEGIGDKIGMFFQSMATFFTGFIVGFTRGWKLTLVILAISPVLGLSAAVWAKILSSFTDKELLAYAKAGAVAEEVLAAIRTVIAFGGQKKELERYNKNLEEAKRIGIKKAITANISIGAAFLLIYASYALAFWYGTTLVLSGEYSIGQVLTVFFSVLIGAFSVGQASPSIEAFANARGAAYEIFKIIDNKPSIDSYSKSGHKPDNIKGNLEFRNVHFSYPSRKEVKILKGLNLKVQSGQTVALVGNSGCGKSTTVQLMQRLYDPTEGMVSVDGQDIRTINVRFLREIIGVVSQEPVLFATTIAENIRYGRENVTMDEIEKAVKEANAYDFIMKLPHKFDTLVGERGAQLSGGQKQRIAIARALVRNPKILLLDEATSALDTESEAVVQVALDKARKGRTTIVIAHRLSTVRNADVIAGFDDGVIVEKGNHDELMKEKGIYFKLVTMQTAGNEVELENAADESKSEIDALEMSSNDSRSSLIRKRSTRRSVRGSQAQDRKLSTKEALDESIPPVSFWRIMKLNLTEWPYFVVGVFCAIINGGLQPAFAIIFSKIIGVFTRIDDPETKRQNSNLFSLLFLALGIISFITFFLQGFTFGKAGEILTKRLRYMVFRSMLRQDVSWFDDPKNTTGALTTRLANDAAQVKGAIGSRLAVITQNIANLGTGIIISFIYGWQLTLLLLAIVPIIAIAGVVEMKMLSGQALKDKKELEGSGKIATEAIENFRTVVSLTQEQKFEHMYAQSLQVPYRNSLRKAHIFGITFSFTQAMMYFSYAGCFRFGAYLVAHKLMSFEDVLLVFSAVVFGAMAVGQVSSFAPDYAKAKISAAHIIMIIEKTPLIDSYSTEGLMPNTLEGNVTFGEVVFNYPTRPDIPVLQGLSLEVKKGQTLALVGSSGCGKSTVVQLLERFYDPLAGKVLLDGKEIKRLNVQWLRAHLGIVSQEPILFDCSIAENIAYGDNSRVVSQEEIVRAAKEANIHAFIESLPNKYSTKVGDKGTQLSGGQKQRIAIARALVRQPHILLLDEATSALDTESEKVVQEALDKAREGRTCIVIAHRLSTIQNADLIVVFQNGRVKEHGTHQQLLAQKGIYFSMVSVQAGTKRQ

[2] = molecular target: T1, ATP-dependent translocase ABCB1 (P-glycoprotein); assay: (§1) TP_TRANSPORTER: increase in Calcein-AM intracellular accumulation (Calcein-AM: 0.25 uM) in MDR-CEM cells; details: human, MDR-CEM cells, probe Calcein-AM
[3] = molecular target: ATP-dependent translocase ABCB1 (Homo sapiens, UniProt P08183); assay: as §1
Sequence of ATP-dependent translocase ABCB1 (P08183 whole entry): as above

EC50 [1] [nM] | EC50 [2] [nM] | EC50 [3] [nM] | Compound
60 | 220 | – | CC[C@H](C)[C@H]1C(=O)NCC(=O)N(C)[C@@H](C(C)C)C(=O)N[C@@H](Cc2ccc(OC)cc2)C(=O)O[C@H](C)C(=O)N2CCCC[C@H]2C(=O)N(C)[C@@H](C(C)C)C(=O)N[C@@H](C(C)C)C(=O)N(C)[C@@H](CC(=O)OC(C)(C)C)C(=O)N(C)[C@@H]([C@@H](C)CC)C(=O)N1C (cyclo(G[NMeV]Y(Me)[dLac][Pip][NMeV]V[NMeD](OtBu)[NMeI][NMeI]))
– | – | 14400 | CCN(CC)CCCC(C)Nc1c2ccc(Cl)cc2nc2ccc(OC)cc12 (stereo not drawn) [QUINACRINE]

Reference: ChEMBL document CHEMBL2074051, “Ranking of P-glycoprotein substrates and inhibitors by a calcein-AM fluorometry screening assay” (Anticancer Drugs, 1996)
